This is an account of results in PubChem BioAssay (NCI).

Structures are written as SMILES. Where “and” joins values, the source holds several entries; their conditions need not be identical. Identical values can stand only once.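 Tested at 5 concentrations; 48 h exposure; 96-well plates; endpoints linearly interpolated, else capped at highest concentration. GI50: concentration for 50% inhibition of growth. TGI denotes the concentration required for complete inhibition of growth.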 Where a SMILES comes first, the peptide text is derived from it. [ ]: non-standard residue; d: D form. The star is where a group is joined. ξ: configuration not given here. NMeN = CN[C@@H](CC(N)=O)C(=O)O; NMeV = CN[C@H](C(=O)O)C(C)C; ξNMeV = CNC(C(=O)O)C(C)C; Boc = CC(C)(C)OC(=O)*; ξNMeA = CNC(C)C(=O)O

What all share (test): NCI tumour cell line growth inhibition, 48 h
Experiment [1] has as its system A549 NSCLC.
The test system of experiment [2] is SW-620 colon.
Experiment [3] deals with SF-268 CNS.
The test system of experiment [4] is HCC-2998 colon.
The subject of experiment [5] is SK-OV-3 ovarian.
Experiment [6] relates to NCI-H226 lung.
Experiment [7] relates to CAKI-1 renal.
The subject of experiment [8] is SN12C renal.
The test system of experiment [9] is SK-MEL-5 melanoma.
Experiment [10] relates to MOLT-4 leukemia.

With `CCCCc1ccc(-n2c3nc(=O)n(C)c(=O)c-3nc3ccccc32)cc1`, the TGI in [1] is 22 µM; in [2], 19.8 µM; in [3], 34.1 µM; in [4] it was 16.3 µM; in [5], more than 100 µM; in [6] it was 26.6 µM. The TGI in experiment [7] turned out to be 54.5 µM; in experiment [8], 20.9 µM; in experiment [9], 3.01 µM; in experiment [10] it was 41.9 µM.
Consider `C1CCN(C2OC3C(COC3N3CCCCC3)OC2OC2CCO[C@@H]2N2CCCCC2)CC1` (stereo partly specified), for which the TGI is more than 100 µM in experiment [1]; more than 100 µM in experiment [2]; more than 100 µM in [3]; more than 100 µM in experiment [4]; more than 100 µM in experiment [5]; 54.1 µM in experiment [6]. Also, the TGI in [7] was more than 100 µM; in [8], more than 100 µM; in [9] it was more than 100 µM; in experiment [10], 84.7 µM.
Regarding `O=C1c2cc([N+](=O)[O-])ccc2-c2cccc(F)c21`, the TGI in [1], in [2], in [3], in [4], in [5] and in [6] was more than 100 µM in each case. For the same molecule, the TGI in experiment [7], in experiment [8], in experiment [9] and in experiment [10] was more than 100 µM each time.
As to `CC[O-].CC[O-].O=C1C(c2ccccc2)=C([O-])c2ccccc21.O=C1C(c2ccccc2)=C([O-])c2ccccc21.[Ti+4]`, the GI50 in experiment [1], in [2], in experiment [3], in experiment [4], in experiment [5] and in [6] was more than 100 µM in each case. In addition, the GI50 in experiment [7], in experiment [8], in experiment [9] and in experiment [10] was more than 100 µM each time. Besides, the TGI in experiment [1], in experiment [2], in [3], in [4], in [5] and in experiment [6] was more than 100 µM throughout. The TGI in [7], in experiment [8], in experiment [9] and in [10] was more than 100 µM throughout.
Take `COc1ccc2c(CN3CCC[C@H]3C(=O)O)cc3cc4c(cc3c2c1)OCO4`: the GI50 in [1] was 21.5 µM; in experiment [2] it was 5.15 µM; in [3], 9.87 µM; in experiment [4], 14.5 µM; in experiment [5] it was 14.6 µM; in experiment [6], 17 µM. The GI50 in experiment [7] was 25 µM; in experiment [8], 6.04 µM; in experiment [9] it was 12.2 µM; in experiment [10] it was 5.33 µM. For the same molecule, the TGI in experiment [1] is more than 100 µM; in [2], 70.4 µM; in [3], 67.1 µM; in [4] it was 33.7 µM; in experiment [5], 51.1 µM; in experiment [6], more than 100 µM. Moreover, the TGI in experiment [7] is 88.6 µM; in experiment [8], 73.2 µM; in experiment [9], 34.2 µM; in experiment [10], more than 100 µM.
For `COC(=O)C(C)N(C)C(=O)[C@H](CC(N)=O)N(C)C(=O)[C@@H]1CCCN1C(=O)[C@H](C(C)C)N(C)C(=O)C(C(C)C)N(C)C(=O)[C@@H](NC(=O)OC(C)(C)C)C(C)C` (stereo partly specified) (Boc-V[ξNMeV][NMeV]P[NMeN][ξNMeA]-OMe), the GI50 in experiment [1] is more than 100 µM; in experiment [2], 12.7 µM; in experiment [4] it was more than 100 µM; in experiment [5] it was more than 100 µM; in experiment [6], more than 100 µM; in experiment [7], more than 100 µM. Also, the GI50 in [8], in experiment [9] and in experiment [10] was more than 100 µM each time. Moreover, the TGI was 50 µM and > 100 µM in [1]; > 50 µM and 26.7 µM in experiment [2]; more than 100 µM in experiment [3]; more than 100 µM in experiment [4]; more than 100 µM in experiment [5]; more than 100 µM in [6]. In addition, the TGI is more than 100 µM in [7]; more than 100 µM in experiment [8]; 50 µM and > 100 µM in experiment [9]; 38.9 µM and > 100 µM in experiment [10].
Consider `Cc1cccc(Cl)c1NC(=O)/C=C/c1ccccc1`, for which the TGI in experiment [1], in [2], in experiment [3], in experiment [4], in experiment [5] and in experiment [6] was more than 100 µM in each case. Besides, the TGI in experiment [7], in experiment [8], in [9] and in [10] was more than 100 µM in each case.
In the case of `Cc1cc(-c2nnc(N)nc2-c2ccc(F)cc2)cc(Cl)n1`, the GI50 was more than 100 µM in experiment [1]; more than 100 µM in [2]; more than 100 µM in [3]; more than 100 µM in experiment [4]; more than 100 µM in experiment [5]; 46.9 µM in experiment [6]. The GI50 in [7] was 43.8 µM; in experiment [8] it was more than 100 µM; in [9], 25.5 µM; in experiment [10], 49.9 µM. The TGI in experiment [1], in experiment [2], in [3], in [4], in [5] and in experiment [6] was more than 100 µM each time. The TGI in experiment [7], in [8], in experiment [9] and in [10] was more than 100 µM throughout.
With `CCCCCCCCCCC(O)C1CCC(C(O)CCC(O)C2CCC(CCCCCCC[C@H](O)CC3=C[C@@H](C)OC3=O)O2)O1` (stereo partly specified), the figures for the GI50 in experiment [1], in [2] and in [9] were 8.66 µM, 9.3 µM and 5.97 µM, respectively. In addition, the TGI in experiment [1] was more than 100 µM; in [2] it was more than 100 µM; in experiment [3] it was more than 100 µM; in experiment [4], more than 100 µM; in experiment [5] it was more than 66.1 µM; in experiment [6], 40.4 µM. Moreover, the TGI in [7] was more than 100 µM; in [8], more than 100 µM; in experiment [9] it was more than 64.3 µM; in experiment [10] it was more than 100 µM.
Regarding `C=CCC(C(=O)O)c1ccccc1` (stereo unspecified), the TGI in experiment [1], in experiment [2], in experiment [3], in experiment [4], in [5] and in [6] was more than 100 µM throughout. Besides, the TGI in experiment [7], in experiment [8], in experiment [9] and in experiment [10] was more than 100 µM each time.
Regarding `Cc1ccc(-c2nc(N)nc3c2nnn3Cc2cccc(CO[C@H]3CCOC3)n2)o1`, the GI50 in experiment [1], in experiment [2], in experiment [3], in experiment [4], in experiment [5] and in experiment [6] was more than 100 µM each time. Besides, the GI50 in experiment [7] was more than 100 µM; in [8], more than 100 µM; in experiment [9] it was 53.6 µM; in experiment [10] it was 98.4 µM. Also, the TGI in [1], in [2], in experiment [3], in [4], in experiment [5] and in experiment [6] was more than 100 µM throughout. The TGI in experiment [7], in experiment [8], in experiment [9] and in [10] was more than 100 µM each time.
As to `CCN=c1cc2sc3cc(NCC)c(C)cc3nc-2cc1C`, the GI50 in experiment [1] is 1.84 µM; in [2], 0.694 µM; in experiment [3], 2.47 µM; in experiment [4] it was 3.5 µM; in experiment [5] it was 2.58 µM; in experiment [6], 10.1 µM. In addition, the GI50 in experiment [7] is 1.34 µM; in experiment [8], 1.5 µM; in experiment [9], 0.475 µM; in experiment [10] it was 0.714 µM. In addition, the TGI in experiment [1] worked out at 10.9 µM; in experiment [2], 12.8 µM; in experiment [3], 14.4 µM; in [4], 11.8 µM; in [5] it was 12.6 µM; in [6] it was 29 µM. The TGI in [7] was 4.6 µM; in experiment [8] it was 12.5 µM; in [9], 1.93 µM; in experiment [10], more than 100 µM.
In the case of `CC(=O)N/C(=C\c1cccc([N+](=O)[O-])c1)c1nc2c3c(ccc2[nH]1)C(=O)c1ccccc1C3=O`, the TGI in experiment [1], in experiment [2], in experiment [3], in experiment [4], in [5] and in experiment [6] was more than 100 µM throughout. Also, the TGI in experiment [7] was more than 100 µM; in experiment [8], more than 100 µM; in experiment [9], more than 100 µM; in experiment [10] it was more than 62.9 µM.
`Nc1nc(=S)[nH]c(C(=O)Nc2ccc(Cl)c(Cl)c2)c1-c1ccc(Cl)cc1`: the TGI in experiment [1], in experiment [2], in experiment [3], in experiment [4], in [5] and in [6] was more than 100 µM in each case. For the same molecule, the TGI in [7], in [8], in experiment [9] and in experiment [10] was more than 100 µM in each case.
As for `CCOC(=O)NC(=O)c1cn(CCCOC(=O)CCCCCCCCCCC(=O)OCCCn2cc(C(=O)NC(=O)OCC)c(=O)n(C)c2=O)c(=O)n(C)c1=O`, the TGI in [1], in [2], in experiment [3], in experiment [4], in [5] and in experiment [6] was more than 100 µM each time. Besides, the TGI in experiment [7], in [8], in experiment [9] and in [10] was more than 100 µM throughout.
Take `O=P([O-])(O)OP(=O)([O-])O.[NH-][C@@H]1CCCC[C@H]1[NH-].[Pt+4]`: the GI50 is 10 µM in [1]; 4.85 µM and 0.659 µM in [2]; 60.6 µM and 6.27 µM in experiment [3]; 81 µM and 10.6 µM in experiment [4]; 98.4 µM and 37.4 µM in [5]; 32.3 µM and 5.29 µM in experiment [6]. Besides, the GI50 was 6.41 µM and 5.25 µM in experiment [7]; 17.6 µM and 8.78 µM in experiment [8]; 5.9 µM and 3.29 µM in experiment [10]. Also, the TGI is more than 100 µM in experiment [1]; more than 100 µM in experiment [2]; more than 100 µM in experiment [3]; > 100 µM and 64.5 µM in experiment [4]; more than 100 µM in [5]; > 100 µM and 33.6 µM in [6]. Also, the TGI in [7] was > 100 µM and 41.7 µM; in experiment [8] it was more than 100 µM; in experiment [9], > 100 µM and 14.9 µM; in experiment [10], more than 100 µM.
For `C=C1C(=O)[C@@]23CC1C(O)[C@@H](OC(C)=O)[C@@H]2C1(C)C(OC(C)=O)C[C@@H](OC(C)=O)C(C)(C)[C@@H]1C[C@H]3OC(C)=O` (stereo partly specified), the GI50 in experiment [1] is > 10 µM and 13.9 µg/mL; in experiment [2], 1.7 µM and 1.85 µg/mL; in experiment [3], > 10 µM and 6.82 µg/mL; in [4] it was 17.3 µg/mL; in experiment [5] it was > 10 µM and 16.5 µg/mL; in [6], 3.11 µg/mL. Further, the GI50 in experiment [7] was 3.03 µg/mL; in experiment [8] it was 5.5 µg/mL; in experiment [9], 2.69 µM and 5.05 µg/mL; in experiment [10], 1.71 µM and 1.28 µg/mL. In addition, the TGI in [1] is > 10 µM and 30 µg/mL; in [2] it was 3.33 µM and 4.57 µg/mL; in [3], > 10 µM and 28.3 µg/mL; in [4] it was > 10 µM and 31.3 µg/mL; in [5], > 10 µM and 30.2 µg/mL; in experiment [6], > 10 µM and 7.24 µg/mL. For the same molecule, the TGI in experiment [7] is > 10 µM and 8.66 µg/mL; in [8], > 10 µM and 17 µg/mL; in [9], 9.01 µM and 16.5 µg/mL; in experiment [10] it was 4.1 µM and 4.03 µg/mL.
For `CC(=O)/C(=C\C1=CCCO1)C(=O)Nc1ccccc1C`, the TGI in [1], in experiment [2], in experiment [3], in experiment [4], in experiment [5] and in [6] was more than 100 µM in each case. In addition, the TGI in experiment [7], in [8], in experiment [9] and in experiment [10] was more than 100 µM each time.
